The source of these data is ChEMBL document CHEMBL2073986, “Impaired organic anion transport in kidney and choroid plexus of organic anion transporter 3 (Oat3 (Slc22a8)) knockout mice” (J Biol Chem, 2002).

This data set addresses T1, Organic anion transporter 3 (Mus musculus, UniProt O88909).
T1 sequence (O88909 whole entry): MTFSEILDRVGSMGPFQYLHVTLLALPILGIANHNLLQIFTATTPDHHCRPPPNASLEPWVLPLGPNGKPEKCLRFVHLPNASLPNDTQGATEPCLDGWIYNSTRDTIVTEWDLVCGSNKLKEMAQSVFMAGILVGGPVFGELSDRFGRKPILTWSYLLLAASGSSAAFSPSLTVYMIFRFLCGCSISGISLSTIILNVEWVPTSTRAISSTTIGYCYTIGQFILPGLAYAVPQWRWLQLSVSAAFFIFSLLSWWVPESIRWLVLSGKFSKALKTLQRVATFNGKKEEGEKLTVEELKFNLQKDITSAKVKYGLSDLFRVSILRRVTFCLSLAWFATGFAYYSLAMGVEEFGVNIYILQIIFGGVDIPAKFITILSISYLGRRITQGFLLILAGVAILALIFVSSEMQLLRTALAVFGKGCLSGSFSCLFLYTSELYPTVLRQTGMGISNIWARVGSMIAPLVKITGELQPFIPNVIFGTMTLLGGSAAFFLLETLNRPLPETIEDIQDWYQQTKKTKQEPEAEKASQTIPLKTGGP
Nature of the data set: TP_TRANSPORTER: uptake in Xenopus laevis oocytes. It is filed as functional, cell-based. To be noted: oocyte.

For the molecule `Nc1ccc(C(=O)NCC(=O)O)cc1` [AMINOHIPPURIC ACID], the Activity entry was “substrate [+]”.

In the case of `C[C@]12CC[C@@H]3c4ccc(OS(=O)(=O)O)cc4CC[C@H]3[C@@H]1CCC2=O` [ESTRONE SULFURIC ACID], the Activity entry is “substrate [+]”.
